Assay results taken from patent US5900434A, “Method for inhibiting the production of interleukin-1 or tumor necrosis factor-α by administering acanthoic acid” (Korea Institute of Science and Technology, priority 1994, dated 1999).

What was measured:
[1] = tested on: serum glutamic-pyruvic transaminase (sGPT); experiment: CCl4-induced hepatocirrhosis in rat, serum GPT; assay type: in vivo, Sprague-Dawley rat; conditions: CCl4-treated rat; 0.2 ml orally twice a week, 13 weeks; FIG. 10
From the text: (§1) Hepatocirrhosis(hepatic sclerosis) is characterized by the fibrosis of whole liver, complete disruption of liver parenchyma by fibrous septa, and formation of regenerative nodules. It is derived mostly from a chronic hepatitis or chronic alcoholism, however, the precise causes thereof are unknown. In a hepatocirrhosis patient, the amount of cytokines, e.g., TNF-α, which is involved in inflammation and fibrosis, is in an increased state; and, therefore, the inhibition of hepatocirrhosis by acanthoic acid may be determined by the inhibitory activity to TNF-α. To induce the experimental hepatocirrhosis in accordance with the method of Nakataukasa, H., et al. as described in J. Clin. Invest., 85, 1833-1843(1990), 1.0 ml/100 g of body weight of CCl4 solution(50% CCl4 +50% corn oil) was injected intraperitoneally to 4 week old male Sprague-Dawley rats twice a week, and 0.2 ml each of methanol extract of A. koreanum Nakai and acanthoic acid was administered orally at the time of the injection of CCl4 twice a week. After 13 weeks from the start of the test, each of the rats was anesthetized with ether and the blood samples were obtained from the heart to determine serum glutamic-oxaloacetic transaminase(sGOT) value and serum glutamic-pyruvic transaminase(sGPT) value(FIG. 10).

[2] = tested on: serum glutamic-oxaloacetic transaminase (sGOT); experiment: CCl4-induced hepatocirrhosis in rat, serum GOT; assay type: in vivo, Sprague-Dawley rat; conditions: vs CCl4, DMSO and PBS control; 0.2 ml orally twice a week, 13 weeks; FIG. 10
From the text: as §1

[3] = tested on: experimental silicosis in rat; experiment: Experimental silicosis in rat, lung histology; assay type: in vivo, Sprague-Dawley rat; conditions: silica 50 mg intrabronchial, 10 mg orally twice a week, 12 to 18 weeks, FIG. 9
Method: For the purpose of confirming the in vivo anti-fibrogenic activity of acanthoic acid, an experimental silicosis model was established and the effect of acanthoic acid on the silicosis model when administered thereto was determined.
Silica was refined by removing any contaminant, e.g., Fe2 O3, therefrom in accordance with the method of Lugano as described in Am. J. Pathol., 109, 27-36(1982) as follows. Silica powder(Sigma, St. Louis, Mo.; the content of the particles having a diameter of 5 μm is at least 80%) was suspended in 1N HCl and the suspension was heated and washed with distilled water. The resultant was sterilized by dry heating at 200° C. for 2 hours and then used in the following experiment.
A 7 to 8 week-old male Sprague-Dawley rat and a 5-week old female ICR mouse were anesthetized by an intraperitoneal injection of 2 to 5 mg of ketamine chloride. The rat was injected into their bronchia with 50 mg of silica dissolved in 0.5 ml of sterilized PBS and the mouse was injected with 2 mg of silica dissolved in 0.1 ml of sterilized PBS, by using an 1 ml syringe. From the next day after the injection of silica, 10 mg of acanthoic acid was administered orally to the rat and mouse twice a week for a period ranging from 12 to 18 weeks. […]

[4] = tested on: IL-1 production in human monocytes and macrophages; experiment: Inhibition of IL-1 production in human monocytes and macrophages (silica-stimulated, thymocyte 3H-thymidine assay); assay type: cell-based; conditions: 0.1 to 100 μg/ml; 100 μg/ml silica, 48 hours; FIG. 2
Method: Normal human peripheral blood was heparin-treated and diluted with equal amount of Hank's balanced salt solution (HBSS: Ca^2+ and Mg^2+ free). The diluted blood was put into a centrifuge tube containing therein Ficoll-Hypaque(Sigma, St. Louis, Mo., U.S.A.) layer having a density of 1.077 piled up on Ficoll-Hypaque layer having a density of 1.119, and then centrifuged at 700×g for 30 minutes to obtain monocytes from the layer between Ficoll-Hypaque layer having a density of 1.077 and serum layer, and neutrophils from the layer between Ficoll-Hypaque layer having a density of 1.077 and that having a density of 1.119. The separated cells were washed twice with 4° C. HBSS(Ca^2+ and Mg^2+ free) and suspended in RPMI 1640 medium(Gibco, Grand Island, N.Y., U.S.A.) containing 10% fetal bovine serum(FBS, Hyclone, Logan, Utah, U.S.A.). The suspensions were added to the wells of 24-well incubation plate(Costar, Cambridge, Mass., U.S.A.) and incubated at 37° C. for 2 hours to obtain monocytes, macrophages and neutrophils. […] The activity of IL-1 in the dialyzate was determined in accordance with the method of Gery described in Cellular Immunology, 64, 293-303(1981) as follows. […] When the incubation was completed, the cells were collected on the glass fiber filter and the amount of incorporated ^3 H-thymidine was determined by liquid scintillation counter(Beckman).

rat = conditions: cited from earlier work

## C=C[C@@]1(C)CC=C2C(CCC3[C@](C)(C(=O)O)CCC[C@@]23C)C1 (single isomer, unassigned; (-)) [acanthoic acid, (-)-pimara-9(11),15-diene-19-oic acid]
[1]
  decrease of sGPT value: more than 40%
[2]
  decrease of sGOT value: 30%
[3]
  lung histology, granuloma and fibrosis (experimental silicosis): only small-sized granulomas which is not coalesce with each other and a slight fibrosis are observed
[4]
  inhibition of production of IL-1: inhibited by acanthoic acid in a concentration-dependent mode
rat
  minimum lethal dose(MLD): 1000 mg/kg
